This note sets out measurements from ChEMBL document CHEMBL6121044, “Discovery of Novel Spirocyclic MAT2A Inhibitors Demonstrating High In Vivo Efficacy in MTAP-Null Xenograft Models” (J Med Chem, 2025).

Data set [1] in a line: Clearance rate in male ICR mouse at 2 mg/kg, iv measured upto 24 hrs by LC-MS/MS analysis. The class given is ADME, organism-based. The following applies: in vivo.
A short description of data set [2]: Plasma protein binding in human assessed as unbound fraction. It is filed as ADME, cell-free.
The subject of data set [3] is HCT-116. Kind of data set: In vivo antitumor activity against MTAP-deleted human HCT-116 cells xenografted mouse model assessed as tumor growth inhibition at 10 mg/kg, po qd measured after 18 days relative to control. It is filed as functional. The following applies: HCT-116, 432 h, time 18 day, read-out: TGI. For orientation: In xenograft studies the graft and the host belong to different species.

The test system of data set [4] is HCT-116. Kind of data set: In vivo antitumor activity against MTAP-deleted human HCT-116 cells xenografted mouse model assessed as tumor growth inhibition at 30 mg/kg, po qd measured after 18 days relative to control. It is filed as functional. The settings on record: HCT-116, 432 h, time 18 day, read-out: TGI.
Data set [5] is described as follows: In vivo antitumor activity against MTAP-deleted human KP-4 cells xenografted mouse model assessed as tumor growth inhibition at 30 mg/kg, po qd measured after 18 days relative to control. The settings on record: KP-4, 432 h, time 18 day, read-out: TGI. The class given is functional.
In a further data set the test system is KP-4. Kind of data set: In vivo antitumor activity against human KP-4 cells xenografted mouse model assessed as tumor growth inhibition at 90 mg/kg, po qd measured after 18 days relative to control. The settings on record: KP-4, 432 h, time 18 day, read-out: TGI. It is filed as functional.
Data set [6] in a line: Volume of distribution at steady state in male ICR mouse at 2 mg/kg, iv measured upto 24 hrs by LC-MS/MS analysis. The class given is ADME, organism-based. The settings on record: in vivo, read-out: Vdss.
For data set [7], the system named is HCT-116. As to the kind of experiment: In vivo antitumor activity against MTAP-deleted human HCT-116 cells xenografted mouse model assessed as tumor growth inhibition at 1 mg/kg, po qd measured after 18 days relative to control. It is filed as functional. The following applies: HCT-116, 432 h, time 18 day, read-out: TGI.
For data set [8], the system named is HCT-116. As to the kind of experiment: In vivo antitumor activity against MTAP-deleted human HCT-116 cells xenografted mouse model assessed as tumor growth inhibition at 3 mg/kg, po qd measured after 18 days relative to control. The class given is functional. The settings on record: HCT-116, 432 h, time 18 day, read-out: TGI.
The nature of data set [9]: Toxicity in mouse xenografted with MTAP-deleted human HCT116 cells assessed as body weight loss at 10 mg/kg, po qd measured after 18 days relative to control. It is filed as organism-based. The settings on record: in vivo, 432 h, time 18 day.
The nature of data set [10]: In vivo antitumor activity against MTAP-deleted human KP-4 cells xenografted mouse model assessed as tumor growth inhibition at 10 mg/kg, po qd measured after 18 days relative to control. The class given is functional. The settings on record: KP-4, 432 h, time 18 day, read-out: TGI.
Data set [11] is described as follows: In vivo antitumor activity against MTAP-deleted human NCI-H838 cells xenografted mouse model assessed as tumor growth inhibition at 3 mg/kg, po qd measured after 18 days relative to control. The class given is functional. The following applies: NCI-H838, 432 h, time 18 day, read-out: TGI.
Data set [12] in a line: In vivo antitumor activity against MTAP-deleted human NCI-H838 cells xenografted mouse model assessed as tumor growth inhibition at 10 mg/kg, po qd measured after 18 days relative to control. The class given is functional. The following applies: NCI-H838, 432 h, time 18 day, read-out: TGI.
Data set [13] in a line: Chronic toxicity in male ICR mouse assessed as body weight loss at 10 mg/kg, po once daily measured after 19 days relative to control. The settings on record: in vivo, 456 h, time 19 day. The class given is organism-based.
A short description of data set [14]: Chronic toxicity in female ICR mouse assessed as body weight loss at 10 mg/kg, po once daily measured after 19 days relative to control. The class given is organism-based. The following applies: in vivo, 456 h, time 19 day.

As to `[2H]C([2H])([2H])NC1=NC(=O)[C@]2(CCc3ncccc32)c2cc(C(C)(F)F)ccc21`, in data set [1], the clearance turned out to be 9.12 mL/min/kg. Besides, the fraction unbound in data set [2] was 0.676. The inhibition in vivo at 10 mg/kg in the data set with HCT-116 [3] came to 72.1%. Moreover, the inhibition in vivo at 30 mg/kg came to 85.4% in the data set with HCT-116 [4] and 62% in [5]. In the data set on KP-4, the inhibition in vivo at 90 mg/kg is 74%.

As for `[2H]C([2H])([2H])NC1=NC(=O)[C@]2(CCc3ncccc32)c2cc(C(F)(F)F)ccc21`, the clearance in data set [1] was 7.98 mL/min/kg. For the same compound, the Vd in data set [6] was determined as 1.7 L/kg. For the same compound, the unbound share (fraction unbound) in data set [2] is 0.758. For the same compound, the inhibition in vivo at 1 mg/kg in the data set with HCT-116 [7] was determined as 61.9%. In addition, the inhibition in vivo at 3 mg/kg in the data set with HCT-116 [8] was 85.9%; in data set [11] it was 61.5%. Further, the Activity in data set [9] is recorded as ~ 15%; in [13], 9.77%; in data set [14] it was 2.36%. The inhibition in vivo at 10 mg/kg in data set [10] came out at 80%; in data set [12], 78.1%.

The term clearance denotes the volume of plasma or blood freed of the substance per unit of time. For orientation: fraction unbound means the share of the substance not bound to proteins or other matrix.
